Test results taken from patent US20140296354A1, “SYNTHESIS OF PEPTOID-BASED SMALL MOLECULAR GELATORS FROM MULTIPLE COMPONENT REACTIONS” (OLD DOMINION UNIVERSITY RESEARCH FOUNDATION, priority 2013, published 2014).

Tests used:
[1] = Gelation test in solvents at room temperature; format: physicochemical; parameters: key to Gelation test result: I, insoluble; P, precipitating; S, soluble at ~20 mg/mL; G, gel at room temperature; number is minimum gelation concentration; conditions: for Gelation test result / minimum gelation concentration: room temperature
Method: Gelation tests were performed by adding incremental amounts of compounds to a solvent or solvent system at room temperature and observing the results (i.e., gel formation, solubility of compounds, insolubility of compounds, or formation of a precipitate). […] The term “precipation” means that the compound dissolves upon heating and sonicating, however, it crashes out of solution when the heat is removed.
After the compounds were synthesized, they were screened for gelation properties. […] For the compounds with new chiral centers, they formed gels in aqueous environment preferentially.

[2] = Gel melting temperatures; format: physicochemical; conditions: gel in DMSO:H2O (1:2) at its minimum gelation concentration
Method: Melting points were measured for compounds that were gelators in the DMSO:H2O (1:2) solvent system. In general, a compound was dissolved in heated solvent in a small vial at its minimum gelation concentration and transferred into a tube (e.g., an NMR tube) while the mixture was still warm. The tube was sonicated and cooled until a stable gel formed. The tube was immersed in an oil bath and the temperature of the solid-to-liquid phase transition was monitored using a thermometer as the oil bath temperature was changed. Gel melting temperatures are presented in […]

[3] = Optical micrographs of gels (morphology); format: physicochemical; conditions: optical micrographs, FIG. 3
Text: Solvent for 1(a-d) is DMSO:H2O (1:2); solvent for 1(e-f) is EtOH:H2O (1:2).
The EtOH/H2O gel has shown more uniform fibrous structures with an average diameter of 0.5 μm and over 300 μm in length (FIG. 3e, f).

SMILES: CCOC(=O)CNC(=O)CN(C(=O)c1ccc(Br)cc1)C1C(OC)OC2COC(c3ccccc3)OC2C1O (stereo not shown) [Compound 26, Ethyl-2-(2-(4-bromo-N-(8-hydroxy-6-methoxy-2-phenyl-hexahydropyrano[3,2-d][1,3]dioxin-7-yl)benzamido)acetamido)acetate]
- melting point: 207 to 209 °C
- gelation efficiency (in words) [1]: more efficient gelator
- concentration at which gel formed ([1]; DMSO/H2O (1:2)): 0.66 wt %
- Gelation test result ([1]; DMSO:H2O (1:1)): G
- minimum gelation concentration ([1]; DMSO:H2O (1:1)): 10.0 mg/mL
- Gelation test result ([1]; DMSO:H2O (1:2)): G
- minimum gelation concentration ([1]; DMSO:H2O (1:2)): 6.6 mg/mL
- MGC in DMSO:H2O (1:2) ([1]; DMSO:H2O (1:2), Table 2): 6.6 mg/mL
- Gelation test result ([1]; EtOH): I
- Gelation test result ([1]; EtOH:H2O (1:1)): G
- minimum gelation concentration ([1]; EtOH:H2O (1:1)): 20.0 mg/mL
- Gelation test result ([1]; EtOH:H2O (1:2)): G
- minimum gelation concentration ([1]; EtOH:H2O (1:2)): 10.0 mg/mL
- Gelation test result ([1]; H2O): P
- Gelation test result ([1]; Hexane): I
- T1, temperature at which gel begins to melt [2]: 110 °C
- T2, temperature at which gel is approximately half melted [2]: 118 °C
- T3, temperature at which gel is fully melted [2]: 128 °C
- morphology of the gel [3]: thinner fibrous assembly
